Source: EPA's ToxValDB 9.5

Legend:
Rattus norvegicus [1] = conditions: subchronic; duration: 90 days; oral; M/F; hematologic, hepatic and renal toxicity
Rattus norvegicus [2] = conditions: chronic; duration: 91 days; oral; diet; Blood: Toxicity + Kidney: Toxicity + Liver: Toxicity
Rattus norvegicus [3] = conditions: subchronic; duration: 13 weeks; oral; diet; M; Sprague-Dawley; renal
Rattus norvegicus [4] = conditions: oral, gavage; for NEL / LEL: Crl:CD(SD) BR; for LOAEL / NOAEL: Sprague-Dawley
Mus musculus = conditions: short-term, duration: 28 days, oral, gavage, M, C57BL/6
[5] = chronic, duration: 92 days, M, Blood: Hematocrit (HCT) + Blood: Hemoglobin (HGB) + Blood: Red Cell Distribution Width (RDW) + Blood: Reticulocytes + Blood: Total Protein (…
[6] = chronic, duration: 92 days, M, Blood: Mean Corpuscular Volume (MCV) + Blood: Red Blood Cell (RBC) + Kidney: Tubular Hypertrophy + Liver: Liver Weight, Relative + Liver: …
[7] = chronic, duration: 92 days, M, Cardiovascular: Aorta: Aorta Histopathology + Cardiovascular: Heart: Heart Histopathology + Cardiovascular: Heart: Heart Weight, Absolute + …
[8] = chronic, duration: 92 days, M, Hematologic: Blood: Activated Partial Thromboplastin Time (APTT) + Hematologic: Blood: Hematocrit (HCT) + Hematologic: Blood: Hemoglobin (…
[9] = chronic, duration: 93 days, F, Blood: Hematocrit (HCT) + Blood: Hemoglobin (HGB) + Blood: Red Blood Cell (RBC) + Blood: Red Cell Distribution Width (RDW) + Blood: …
[10] = chronic, duration: 93 days, F, Liver: Liver Weight, Absolute + Liver: Liver Weight, Relative
[11] = chronic, duration: 93 days, F, Cardiovascular: Aorta: Aorta Histopathology + Cardiovascular: Heart: Heart Histopathology + Cardiovascular: Heart: Heart Weight, Absolute + …
[12] = chronic, duration: 93 days, F, Hematologic: Blood: Activated Partial Thromboplastin Time (APTT) + Hematologic: Blood: Hematocrit (HCT) + Hematologic: Blood: Hemoglobin (…
[13] = developmental, duration: 14 days, M/F, generation: F1, F1: Pelvis: Litters with Pelvis, Incomplete Ossification + F1: Pelvis: Pelvis, Incomplete Ossification + F1: Rib: Litters with Rib, Wavy + …
[14] = developmental, duration: 14 days, M/F, generation: F1, F1: Skull: Litters with Skull, Incomplete Ossification + F1: Skull: Skull, Incomplete Ossification
[15] = developmental, duration: 14 days, M/F, generation: F1, F1: Developmental: Head: Fetal Alterations Count, Head Malformations + F1: Developmental: Head: Litters with Head Malformations + F1: …
[16] = developmental, duration: 14 days, M/F, generation: F1, F1: Developmental: Rib: Rib, Wavy + F1: Developmental: Skull: Litters with Skull, Incomplete Ossification + F1: Developmental: Sternebra: …
[17] = reproduction developmental, duration: 14 days, F, generation: P0, P0: Fur: Stained Fur + P0: Hair/Fur: Alopecia + P0: Intestine: Soft or Liquid Feces + P0: Whole Body: Hunched Posture + P0: Whole Body: …
[18] = reproduction developmental, duration: 14 days, F, generation: P0, P0: Developmental: Uterus: Implantation
[19] = reproduction developmental, duration: 14 days, F, generation: P0, P0: Developmental: Uterus: Implantation + P0: Developmental: Uterus: Resorptions, Mean/Litter + P0: Developmental: Whole Body: No. Male Pups…
[20] = reproduction developmental, duration: 14 days, F, generation: P0, P0: Developmental: Whole Body: No. Male Pups per No. of Pups Sexed + P0: General Toxicity: Whole Body: Hunched Posture + P0: General …
[21] = Liver: Catalase (CAT) Activity, Liver + Multi-organ: Interleukin 1 Beta (IL-1b) mRNA + Spleen: Interleukin 6 (IL-6) mRNA
[22] = Liver: Superoxide Dismutase (SOD) Activity + Multi-organ: Catalase (CAT) Activity, Blood + Multi-organ: Interleukin 1 Beta (IL-1b), Serum + …

Compound: O=C(O)COc1ccc(Cl)cc1Cl [2,4-Dichlorophenoxyacetic acid]
- LOAEL (Rattus norvegicus [1]): 5 mg/kg-day
- NOAEL (Rattus norvegicus [1]): 1 mg/kg-day
- NOAEL (Rattus norvegicus [2]): 1 mg/kg-day
- NOAEL (Rattus norvegicus [3]): 16.6 mg/kg-day

Compound: OCCC(F)(F)C(F)(F)C(F)(F)C(F)(F)C(F)(F)C(F)(F)C(F)(F)C(F)(F)F [2-(Perfluorooctyl)ethanol]
- NEL (Rattus norvegicus [4]; chronic, duration: 92 days, M, Adrenal: Adrenal Gland Histopathology + Adrenal: Adrenal Gland Weight, Absolute + Adrenal: Adrenal Gland Weight, Relative + Aorta: Aorta …): 125 mg/kg-day
- LEL (Rattus norvegicus [4]; [5]): 125 mg/kg-day
- NEL (Rattus norvegicus [4]; [5]): 25 mg/kg-day
- LEL (Rattus norvegicus [4]; [6]): 25 mg/kg-day
- NEL (Rattus norvegicus [4]; [6]): 5 mg/kg-day
- LEL (Rattus norvegicus [4]; chronic, duration: 92 days, M, Liver: Cholesterol (CHOL), Total, Blood + Thyroid: Colloid Alteration): 1 mg/kg-day
- LOAEL (Rattus norvegicus [4]; [7]): 1 mg/kg-day
- NOAEL (Rattus norvegicus [4]; [7]): 125 mg/kg-day
- LOAEL (Rattus norvegicus [4]; chronic, duration: 92 days, M, Endocrine: Adrenal: Adrenal Gland Histopathology + Endocrine: Adrenal: Adrenal Gland Weight, Absolute + Endocrine: Adrenal: Adrenal Gland …): 1 mg/kg-day
- LOAEL (Rattus norvegicus [4]; [8]): 25 mg/kg-day
- NOAEL (Rattus norvegicus [4]; [8]): 5 mg/kg-day
- NEL (Rattus norvegicus [4]; chronic, duration: 93 days, F, Adrenal: Adrenal Gland Histopathology + Adrenal: Adrenal Gland Weight, Absolute + Adrenal: Adrenal Gland Weight, Relative + Aorta: Aorta …): 125 mg/kg-day
- LEL (Rattus norvegicus [4]; [9]): 125 mg/kg-day
- NEL (Rattus norvegicus [4]; [9]): 25 mg/kg-day
- LEL (Rattus norvegicus [4]; [10]): 25 mg/kg-day
- NEL (Rattus norvegicus [4]; [10]): 5 mg/kg-day
- LOAEL (Rattus norvegicus [4]; [11]): 1 mg/kg-day
- NOAEL (Rattus norvegicus [4]; [11]): 125 mg/kg-day
- LOAEL (Rattus norvegicus [4]; chronic, duration: 93 days, F, Endocrine: Adrenal: Adrenal Gland Histopathology + Endocrine: Adrenal: Adrenal Gland Weight, Absolute + Endocrine: Adrenal: Adrenal Gland …): 1 mg/kg-day
- LOAEL (Rattus norvegicus [4]; [12]): 25 mg/kg-day
- NOAEL (Rattus norvegicus [4]; [12]): 5 mg/kg-day
- NEL (Rattus norvegicus [4]; developmental, duration: 14 days, M/F, generation: F1, F1: Head: Fetal Alterations Count, Head Malformations + F1: Head: Litters with Head Malformations + F1: Kidney: Litters with Small Renal …): 500 mg/kg-day
- LEL (Rattus norvegicus [4]; [13]): 500 mg/kg-day
- NEL (Rattus norvegicus [4]; [13]): 200 mg/kg-day
- LEL (Rattus norvegicus [4]; [14]): 200 mg/kg-day
- NEL (Rattus norvegicus [4]; [14]): 50 mg/kg-day
- LOAEL (Rattus norvegicus [4]; [15]): 200 mg/kg-day
- NOAEL (Rattus norvegicus [4]; [15]): 20 mg/kg-day
- LOAEL (Rattus norvegicus [4]; [16]): 500 mg/kg-day
- NOAEL (Rattus norvegicus [4]; [16]): 200 mg/kg-day
- LEL (Rattus norvegicus [4]; [17]): 500 mg/kg-day
- NEL (Rattus norvegicus [4]; [17]): 200 mg/kg-day
- NEL (Rattus norvegicus [4]; reproduction developmental, duration: 14 days, F, generation: P0, P0: Ovary: Corpora Lutea + P0: Uterus: Implantation + P0: Uterus: Resorptions, Mean/Litter + P0: Whole Body: Male Pups per Pups Sexed): 500 mg/kg-day
- LOAEL (Rattus norvegicus [4]; [18]): 500 mg/kg-day
- NOAEL (Rattus norvegicus [4]; [18]): 200 mg/kg-day
- LOAEL (Rattus norvegicus [4]; [19]): 200 mg/kg-day
- NOAEL (Rattus norvegicus [4]; [19]): 20 mg/kg-day
- NOAEL (Rattus norvegicus [4]; reproduction developmental, duration: 14 days, F, generation: P0, P0: Developmental: Uterus: Resorptions, Mean/Litter): 500 mg/kg-day
- LOAEL (Rattus norvegicus [4]; [20]): 200 mg/kg-day
- NOAEL (Rattus norvegicus [4]; [20]): 20 mg/kg-day
- LEL (Mus musculus; [21]): 100 mg/kg-day
- NEL (Mus musculus; [21]): 30 mg/kg-day
- NEL (Mus musculus; Liver: Glutathione (GSH), Liver + Multi-organ: Chemokine C-X-C motif Ligand 1 (CXCL-1), Serum + Multi-organ: Interleukin 6 (IL-6) mRNA + …): 100 mg/kg-day
- LEL (Mus musculus; Liver: Liver Histopathology + Liver: Liver Weight, Absolute + Liver: Liver Weight, Relative + Multi-organ: Chemokine C-X-C motif Ligand 1 (…): 10 mg/kg-day
- LEL (Mus musculus; [22]): 30 mg/kg-day
- NEL (Mus musculus; [22]): 10 mg/kg-day
